Results: US20220267310A1, “QUINAZOLINE AND CINNOLINE DERIVATIVES AS DNA-PK INHIBITOR” (MEDSHINE DISCOVERY INC., priority 2019, published 2022)
Where two headings read alike, the source gives them in different places.

Assays:
[1] = Pharmacokinetic evaluation in mice, IV and PO; assay type: in vivo, Balb/c female mice; details: for bioavailability: plasma; for bioavailability / Bioavailability (%): mouse; for Vd: read-out: Vdss
Experimental: The tested compound was mixed with 10% DMSO/50% PEG400/40% water, vortexized and ultrasonic to prepare 0.2 mg/mL or 0.4 mg/ml, approximately clarified solution, which was filtered by a microporous membrane and then standby. Balb/c female mice of 18-20 g were selected and given the candidate compound solution intravenously at a dose of 1 or 2 mg/kg. The tested compound was mixed with 10% DMSO/50% PEG400/40% water, vortexized and ultrasonic to prepare 0.2 mg/mL or 1 mg/mL approximately clarified solution, which was filtered by a microporous membrane and then standby. Balb/c female mice of 18 to 20 g were selected and given orally the candidate compound solution at a dose of 2 or 10 mg/kg. Whole blood was collected for a certain period of time, and plasma was prepared. Drug concentration was analyzed by LC-MS/MS method, and pharmacokinetic parameters were calculated by Phoenix WinNonlin software (US Pharsight company).
C0: instantaneous concentration required after intravenous injection; Cmax: the highest blood concentration after administration; Tmax: time required to reach peak concentration after administration; T1/2: the time required for blood drug concentration to decrease by half; Vdss: apparent volume of distribution, which refers to the ratio constant of drug dosage to blood concentration when a drug reaches dynamic equilibrium in vivo. Cl: clearance rate, referring to drug apparent distribution volume number removed from the body per unit time; Tlast: time of last detection point: AUC0-last: an area under a drug duration curve, referring to an area surrounded by the blood drug concentration curve on the time axis; Bioavailability: a measure of the rate and extent of drug absorption into the blood circulation, which was an important index to evaluate drug absorption degree.

PI3K (p110β/p85α) = molecular target: T1, PI3K (p110β/p85α) (Homo sapiens, UniProt P42338); assay: PI3K (p110β/p85α) kinase inhibitory activity (HTRF); assay type: biochemical
T1 construct: Eurofins Pharma Discovery Service (contract assay)
Experimental: (§1) This experiment was tested at Eurofins Pharma Discovery Service, Reaction Biology Corp. (RBC)
(§2) […] DNA-PK: Mg/ATP; GST-cMyc-p53; EDTA; Ser15 antibody; ATP: 10 μM; biotinylated phosphatidylinositol-3,4,5-triphosphate; GST label GRP1 PH domain; streptavidin and phycocyanin; europium-labelled monoclonal antibody against GST.
(§3) PI3K (p110β/p85α) was incubated in a determination buffer containing phosphatidylinositol 4,5-diphosphate and Mg/ATP (density as required). The reaction was initiated by adding a mixture of Mg/ATP. After incubating at room temperature for 30 min, a termination solution containing EDTA and biotinylated phosphatidylinositol-3,4, 5-triphosphate was added to terminate the reaction. Finally, a detection buffer (containing labeled anti-GST monoclonal antibody, PH domain of GRP1 with GST label and streptavidin and phycyanin and […]) was added. Then, the board was read in time-resolved fluorescence mode, and an HTRF signal was measured according to the formula HTRF=10000×(Em665 nm/Em620 nm).

PI3K (p110α/p85α) = molecular target: T2, PI3K (p110α/p85α) (Homo sapiens, UniProt P42336); assay: PI3K (p110α/p85α) kinase inhibitory activity (HTRF); assay type: biochemical
T2 construct: Eurofins Pharma Discovery Service (contract assay)
Experimental: as §1, §2
as §3, with “(p110α/p85α)” for “(p110β/p85α)”, “an ATP solution.” for “a mixture of Mg/ATP.”, “phosphatidylinositol-3,4,5-triphosphate” for “phosphatidylinositol-3,4, 5-triphosphate”

[2] = female, Balb/c, IV(1 mg/kg), mouse plasma
[3] = female, Balb/c, IV(2 mg/kg), mouse plasma
[4] = female, Balb/c, PO(2 mg/kg), mouse plasma
[5] = female, Balb/c, PO(10 mg/kg), mouse plasma

T2 sequence (P42336 whole entry, species assumed): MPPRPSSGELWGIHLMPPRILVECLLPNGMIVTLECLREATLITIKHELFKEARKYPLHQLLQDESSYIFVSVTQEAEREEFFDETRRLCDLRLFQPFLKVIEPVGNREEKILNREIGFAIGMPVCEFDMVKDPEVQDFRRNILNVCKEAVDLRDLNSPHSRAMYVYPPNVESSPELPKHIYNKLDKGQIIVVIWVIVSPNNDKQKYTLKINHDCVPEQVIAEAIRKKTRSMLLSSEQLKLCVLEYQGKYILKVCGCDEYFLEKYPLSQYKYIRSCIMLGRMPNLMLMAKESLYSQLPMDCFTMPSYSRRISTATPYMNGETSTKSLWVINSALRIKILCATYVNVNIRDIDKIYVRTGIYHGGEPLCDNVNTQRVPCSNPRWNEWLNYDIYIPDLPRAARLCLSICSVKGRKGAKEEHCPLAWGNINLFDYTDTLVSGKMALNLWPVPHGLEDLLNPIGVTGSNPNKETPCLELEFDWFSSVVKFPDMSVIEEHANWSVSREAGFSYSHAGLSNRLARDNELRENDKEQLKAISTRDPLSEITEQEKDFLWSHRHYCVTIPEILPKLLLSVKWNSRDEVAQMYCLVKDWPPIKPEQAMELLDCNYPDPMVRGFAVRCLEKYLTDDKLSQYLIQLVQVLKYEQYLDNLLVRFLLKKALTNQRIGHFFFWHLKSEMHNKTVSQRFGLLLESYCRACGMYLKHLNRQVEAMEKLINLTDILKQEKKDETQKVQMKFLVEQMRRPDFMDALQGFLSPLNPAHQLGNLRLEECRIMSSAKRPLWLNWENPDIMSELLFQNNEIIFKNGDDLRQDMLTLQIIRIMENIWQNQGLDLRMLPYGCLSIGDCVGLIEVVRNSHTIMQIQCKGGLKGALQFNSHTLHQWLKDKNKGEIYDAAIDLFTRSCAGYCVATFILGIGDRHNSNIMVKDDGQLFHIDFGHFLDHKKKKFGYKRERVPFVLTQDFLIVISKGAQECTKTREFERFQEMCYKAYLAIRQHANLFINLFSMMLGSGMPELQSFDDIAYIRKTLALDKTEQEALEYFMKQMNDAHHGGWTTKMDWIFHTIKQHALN
T2 sequence (P27986 whole entry partner, species assumed): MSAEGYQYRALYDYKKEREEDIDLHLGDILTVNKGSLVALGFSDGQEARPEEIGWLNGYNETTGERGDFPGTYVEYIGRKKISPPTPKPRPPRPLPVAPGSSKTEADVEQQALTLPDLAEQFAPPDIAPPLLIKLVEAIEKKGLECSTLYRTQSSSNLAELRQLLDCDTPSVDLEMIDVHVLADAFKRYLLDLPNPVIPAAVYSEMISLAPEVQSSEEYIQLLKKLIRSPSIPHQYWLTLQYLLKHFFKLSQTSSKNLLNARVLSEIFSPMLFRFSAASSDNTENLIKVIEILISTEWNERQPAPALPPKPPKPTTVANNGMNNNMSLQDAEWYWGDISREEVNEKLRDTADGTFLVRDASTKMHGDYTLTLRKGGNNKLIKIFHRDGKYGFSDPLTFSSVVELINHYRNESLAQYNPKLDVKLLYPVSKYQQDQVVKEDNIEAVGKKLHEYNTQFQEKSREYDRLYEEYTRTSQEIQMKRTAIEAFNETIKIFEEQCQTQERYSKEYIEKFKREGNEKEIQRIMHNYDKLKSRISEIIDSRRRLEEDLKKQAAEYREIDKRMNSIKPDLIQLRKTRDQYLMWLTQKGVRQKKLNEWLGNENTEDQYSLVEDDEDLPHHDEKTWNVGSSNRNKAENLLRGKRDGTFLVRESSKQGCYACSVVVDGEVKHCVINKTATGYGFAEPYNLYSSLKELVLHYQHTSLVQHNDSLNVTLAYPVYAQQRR
T1 sequence (P42338 whole entry, species assumed): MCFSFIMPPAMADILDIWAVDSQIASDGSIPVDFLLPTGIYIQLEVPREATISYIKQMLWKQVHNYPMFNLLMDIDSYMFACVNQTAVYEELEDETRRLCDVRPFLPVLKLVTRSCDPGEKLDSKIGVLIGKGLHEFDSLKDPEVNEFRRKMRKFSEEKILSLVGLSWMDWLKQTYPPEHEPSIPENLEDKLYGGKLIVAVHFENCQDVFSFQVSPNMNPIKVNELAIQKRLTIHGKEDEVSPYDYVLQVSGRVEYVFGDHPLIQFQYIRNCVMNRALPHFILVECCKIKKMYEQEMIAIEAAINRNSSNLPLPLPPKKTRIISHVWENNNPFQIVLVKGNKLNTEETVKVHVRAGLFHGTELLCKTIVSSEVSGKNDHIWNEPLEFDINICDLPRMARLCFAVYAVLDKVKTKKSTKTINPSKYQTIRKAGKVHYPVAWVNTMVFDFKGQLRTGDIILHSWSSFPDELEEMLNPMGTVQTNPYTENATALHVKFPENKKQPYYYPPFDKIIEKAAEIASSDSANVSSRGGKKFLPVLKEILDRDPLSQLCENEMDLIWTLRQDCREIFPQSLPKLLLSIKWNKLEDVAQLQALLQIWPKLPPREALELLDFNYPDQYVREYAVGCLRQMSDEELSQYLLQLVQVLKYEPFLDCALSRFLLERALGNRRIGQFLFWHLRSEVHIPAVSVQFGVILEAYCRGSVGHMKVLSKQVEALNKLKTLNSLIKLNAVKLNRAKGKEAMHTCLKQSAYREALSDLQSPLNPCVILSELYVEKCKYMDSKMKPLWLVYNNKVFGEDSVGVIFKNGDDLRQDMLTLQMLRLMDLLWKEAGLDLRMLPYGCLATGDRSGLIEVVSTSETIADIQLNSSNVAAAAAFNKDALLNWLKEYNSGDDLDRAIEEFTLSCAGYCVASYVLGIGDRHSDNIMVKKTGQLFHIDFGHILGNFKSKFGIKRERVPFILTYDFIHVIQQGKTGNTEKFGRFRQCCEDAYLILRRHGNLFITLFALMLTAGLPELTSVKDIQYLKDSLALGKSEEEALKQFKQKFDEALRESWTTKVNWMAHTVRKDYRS
T1 sequence (P27986 whole entry partner, species assumed): as the sequence (P27986 whole entry partner, species assumed) above

With `COc1ccc([C@@H](O)c2cc(-c3nncc4cc(N5CCOCC5)ccc34)c(F)cc2Cl)nn1` [Embodiment M3814, reference compound] the “Tlast” value ([1]; IV(1 mg/kg), mouse plasma) was 6.00 h, the “Tlast” value ([1]; IV(2 mg/kg), mouse plasma) was 4.00 h and the “Tlast” value ([1]; PO(2 mg/kg), mouse plasma) was 8.00 h. The “Tlast” value ([1]; PO(10 mg/kg), mouse plasma) was 8.00 h, the bioavailability ([1]; female, Balb/c, PO(2 mg/kg)) was 25.8% and the bioavailability ([1]; female, Balb/c, PO(10 mg/kg)) was 54%. For the same compound, the AUC(0-t) [1, 2] was 1.33 µM·h, the C0 [1, 2] was 1970 nM and the clearance [1, 2] was 25.9 mL/min/kg. The half-life [1, 2] was 42.4 min, the Vd [1, 2] was 1.34 L/kg and the AUC(0-t) [1, 3] was 1.41 µM·h. For the same compound, the C0 [1, 3] was 2160 nM, the clearance [1, 3] was 49 mL/min/kg and the half-life [1, 3] was 28.7 min. The Vd [1, 3] was 1.9 L/kg, the AUC(0-t) [1, 4] was 0.688 µM·h and the Cmax [1, 4] was 580 nM. It also gave a half-life [1, 4] of 128 min, a Tmax ([1]; female, Balb/c, PO(2 mg/kg), mouse plasma, read-out: Tmax) of 15 min and an AUC(0-t) [1, 5] of 3.73 µM·h. The Cmax [1, 5] was 2060 nM, the half-life [1, 5] was 85.8 min and the Tmax ([1]; female, Balb/c, PO(10 mg/kg), mouse plasma, read-out: Tmax) was 30 min. For the same compound, the IC50 (PI3K (p110β/p85α)) was 33 nM and the IC50 (PI3K (p110α/p85α)) was 42 nM.
For `COc1ccc(C(O)c2cc(-c3cnnc4c(F)c(N5CCOCC5)cc(F)c34)c(F)cc2Cl)nn1` (single isomer, unassigned) [Embodiment 19], the “AUC0-last” value ([1]; IV(1 mg/kg), mouse plasma) was 1569 nM·h, the C0 ([1]; IV(1 mg/kg), mouse plasma) was 1290 nM and the “Cl” value ([1]; IV(1 mg/kg), mouse plasma) was 20.2 mL/min/kg. For the same compound, the “T1/2” value ([1]; IV(1 mg/kg), mouse plasma) was 1.31 h, the “Tlast” value ([1]; IV(1 mg/kg), mouse plasma) was 8.00 h and the “Vdss” value ([1]; IV(1 mg/kg), mouse plasma) was 2.13 L/kg. The “AUC0-last” value ([1]; IV(2 mg/kg), mouse plasma) was 3832 nM·h, the C0 ([1]; IV(2 mg/kg), mouse plasma) was 2250 nM and the “Tlast” value ([1]; IV(2 mg/kg), mouse plasma) was 8.00 h. For the same compound, the “Bioavailability (%)” value ([1]; PO(2 mg/kg)) was 47.9%, the “AUC0-last” value ([1]; PO(2 mg/kg), mouse plasma) was 1503 nM·h and the Cmax ([1]; PO(2 mg/kg), mouse plasma) was 448 nM. The “T1/2” value ([1]; PO(2 mg/kg), mouse plasma) was 8.14 h, the “Tlast” value ([1]; PO(2 mg/kg), mouse plasma) was 8.00 h and the “Tmax” value ([1]; PO(2 mg/kg), mouse plasma) was 15 min. The “Bioavailability (%)” value ([1]; PO(10 mg/kg)) was 70.5%, the “AUC0-last” value ([1]; PO(10 mg/kg), mouse plasma) was 13737 nM·h and the Cmax ([1]; PO(10 mg/kg), mouse plasma) was 2740 nM. The “T1/2” value ([1]; PO(10 mg/kg), mouse plasma) was 1.78 h, the “Tlast” value ([1]; PO(10 mg/kg), mouse plasma) was 12.0 h and the “Tmax” value ([1]; PO(10 mg/kg), mouse plasma) was 60 min. For the same compound, the IC50 (PI3K (p110β/p85α)) was 345 nM and the IC50 (PI3K (p110α/p85α)) was 483 nM.
